According to ChEMBL document CHEMBL3580646, “SAR and Structural Analysis of Siderophore-Conjugated Monocarbam Inhibitors of Pseudomonas aeruginosa PBP3” (ACS Med Chem Lett, 2015):
Converted amounts (≈) assume the structure as drawn.

How the values were obtained:
[1] = Unbound fraction in human plasma after 16 hrs by LC-MS/MS analysis
[2] = system: Pseudomonas aeruginosa; assay: Antibacterial activity against Pseudomonas aeruginosa PAO1 by broth microdilution method; type: functional
[3] = system: Pseudomonas aeruginosa; assay: Activity of Pseudomonas aeruginosa PBP3 assessed as acylation rate constant
[4] = Half life of the compound at pH 7.4 at 37 degC; type: ADME
[5] = Clearance in Han Wistar rat at 1 mg/kg, iv; type: ADME, organism-based; conditions: in vivo
[6] = Half life in Han Wistar rat at 1 mg/kg, iv; type: ADME, organism-based; conditions: in vivo
[7] = Volume of distribution at steady state in Han Wistar rat at 1 mg/kg, iv; type: ADME, organism-based; conditions: in vivo, read-out: Vdss
[8] = system: Pseudomonas aeruginosa; assay: Antibacterial activity against Pseudomonas aeruginosa; type: functional

Row | SMILES | fraction unbound at 16 h [1] | MIC [2] [mg/L] | K [3] | half-life [4] [h] | clearance [5] [L/h/kg] | half-life [6] [h] | Vd [7] [L/kg] | MIC90 [8] [mg/L]
1 | C[C@H]1[C@H](NC(=O)/C(=N\OC(C)(C)C(=O)O)c2csc(N)n2)C(=O)N1C(=O)NS(=O)(=O)n1nc(-c2cc(=O)c(O)c[nH]2)n(CC2(CS(C)(=O)=O)CC2)c1=O | 0.09 | 0.5 (≈ 0.624 µM) | 2.5 ×10⁵ /M/s | 71 |  |  |  | 
2 | C[C@H]1[C@H](NC(=O)/C(=N\OC(C)(C)C(=O)O)c2csc(N)n2)C(=O)N1C(=O)NS(=O)(=O)n1nc(-c2cc(=O)c(O)c[nH]2)n(C[C@@H](O)CS(C)(=O)=O)c1=O | 0.04 | 1 (≈ 1.26 µM) | 5.4 ×10⁵ /M/s | 87 |  |  |  | 
3 | C[C@H]1[C@H](NC(=O)/C(=N\OC(C)(C)C(=O)O)c2csc(N)n2)C(=O)N1C(=O)NS(=O)(=O)n1nc(-c2cc(=O)c(O)c[nH]2)n(CCCCS(C)(=O)=O)c1=O | 0.07 | 0.25 (≈ 0.317 µM) | 6.2 ×10⁵ /M/s | 100 |  |  |  | 
4 | C=CC[C@@H]1[C@H](NC(=O)/C(=N\OC(C)(C)C(=O)O)c2csc(N)n2)C(=O)N1C(=O)NS(=O)(=O)n1nc(-c2cc(=O)c(O)c[nH]2)n(CCCS(C)(=O)=O)c1=O |  | 8 (≈ 9.99 µM) | 5.9 ×10⁵ /M/s | 126 |  |  |  | 
5 | C[C@H]1[C@H](NC(=O)/C(=N\OC(C)(C)C(=O)O)c2csc(N)n2)C(=O)N1C(=O)NS(=O)(=O)n1nc(-c2cc(=O)c(O)c[nH]2)n(CCS(N)(=O)=O)c1=O |  | < 0.6 | > 4 ×10⁵ /M/s | 102 |  |  |  | 
6 | C[C@H]1[C@H](NC(=O)/C(=N\OC(C)(C)C(=O)O)c2nsc(N)n2)C(=O)N1C(=O)NS(=O)(=O)n1nc(-c2cc(=O)c(O)c[nH]2)n(CCCS(C)(=O)=O)c1=O | 0.27 | 0.25 (≈ 0.322 µM) | 5 ×10⁵ /M/s | 85 | 0.57 | 2 | 0.26 | 
7 | C[C@H]1[C@H](NC(=O)/C(=N\OC(C)(C)C(=O)O)c2csc(N)n2)C(=O)N1C(=O)NS(=O)(=O)n1nc(-c2cc(=O)c(O)c[nH]2)n(CCCS(C)(=O)=O)c1=O | 0.09 | 0.25 (≈ 0.323 µM) | 1.7 ×10⁵ /M/s | 93 | 0.438 | 3 | 0.21 | 
8 | CC[C@H]1[C@H](NC(=O)/C(=N\OC(C)(C)C(=O)O)c2csc(N)n2)C(=O)N1C(=O)NS(=O)(=O)n1nc(-c2cc(=O)c(O)c[nH]2)n(CCCS(C)(=O)=O)c1=O |  | 0.5 (≈ 0.634 µM) | 3.6 ×10⁵ /M/s | 98 | 0.72 | 2 | 0.35 | 
9 | C=C[C@H]1[C@H](NC(=O)/C(=N\OC(C)(C)C(=O)O)c2csc(N)n2)C(=O)N1C(=O)NS(=O)(=O)n1nc(-c2cc(=O)c(O)c[nH]2)n(CCCS(C)(=O)=O)c1=O |  | 0.5 (≈ 0.635 µM) | 2.1 ×10⁵ /M/s | 53 | 0.66 | 2 | 0.18 | 
10 | C[C@H]1[C@H](NC(=O)/C(=N\OC(C)(C)C(=O)O)c2csc(N)n2)C(=O)N1C(=O)NS(=O)(=O)n1nc(-c2cc(=O)c(O)c[nH]2)n(CCCNS(C)(=O)=O)c1=O | 0.08 | 0.5 (≈ 0.633 µM) | 3 ×10⁵ /M/s |  |  |  |  | 
11 | CCC[C@@H]1[C@H](NC(=O)/C(=N\OC(C)(C)C(=O)O)c2csc(N)n2)C(=O)N1C(=O)NS(=O)(=O)n1nc(-c2cc(=O)c(O)c[nH]2)n(CCCS(C)(=O)=O)c1=O |  | 4 (≈ 4.98 µM) | 7.4 ×10⁵ /M/s | > 150 |  |  |  | 
12 | C=C[C@@H]1[C@H](NC(=O)/C(=N\OC(C)(C)C(=O)O)c2csc(N)n2)C(=O)N1C(=O)NS(=O)(=O)n1nc(-c2cc(=O)c(O)c[nH]2)n(CCCS(C)(=O)=O)c1=O |  | 2 (≈ 2.54 µM) | 1.9 ×10⁵ /M/s | 38 |  |  |  | 
13 | C[C@H]1[C@H](NC(=O)/C(=N\OC(C)(C)C(=O)O)c2csc(N)n2)C(=O)N1C(=O)NS(=O)(=O)n1nc(-c2cc(=O)c(O)c[nH]2)n(CCNS(C)(=O)=O)c1=O | 0.08 | 0.5 (≈ 0.645 µM) | 4.1 ×10⁵ /M/s | 61 |  |  |  | 
14 | CC[C@@H]1[C@H](NC(=O)/C(=N\OC(C)(C)C(=O)O)c2csc(N)n2)C(=O)N1C(=O)NS(=O)(=O)n1nc(-c2cc(=O)c(O)c[nH]2)n(CCCS(C)(=O)=O)c1=O |  | 1 (≈ 1.27 µM) | 8.8 ×10⁵ /M/s | 94 |  |  |  | 
15 | C[C@H]1[C@H](NC(=O)/C(=N\OC(C)(C)C(=O)O)c2csc(N)n2)C(=O)N1C(=O)NS(=O)(=O)n1nc(-c2cc(=O)c(O)c[nH]2)n(CCC2(S(C)(=O)=O)CC2)c1=O | 0.04 | 0.5 (≈ 0.624 µM) | 4.5 ×10⁵ /M/s | 94 |  |  |  | 
16 | C[C@@H]1[C@H](NC(=O)/C(=N\OC(C)(C)C(=O)O)c2csc(N)n2)C(=O)N1C(=O)NS(=O)(=O)n1nc(-c2cc(=O)c(O)c[nH]2)n(CCCS(C)(=O)=O)c1=O |  | 1 (≈ 1.29 µM) | 1.6 ×10⁵ /M/s | 76 |  |  |  | 
17 | C[C@H]1[C@H](NC(=O)/C(=N\OC(C)(C)C(=O)O)c2csc(N)n2)C(=O)N1C(=O)NS(=O)(=O)n1nc(-c2cc(=O)c(O)c[nH]2)n(C[C@@H](O)CO)c1=O | 0.04 | 0.25 (≈ 0.343 µM) | 7.2 ×10⁵ /M/s | 117 |  |  |  | 
18 | C[C@H]1[C@H](NC(=O)/C(=N\OC(C)(C)C(=O)O)c2nc(N)sc2Cl)C(=O)N1C(=O)NS(=O)(=O)n1nc(-c2cc(=O)c(O)c[nH]2)n(CCCS(C)(=O)=O)c1=O | 0.06 | 1 (≈ 1.24 µM) | 3.2 ×10⁵ /M/s | 118 |  |  |  | 
19 | C[C@H]1[C@H](NC(=O)/C(=N\OC(C)(C)C(=O)O)c2csc(N)n2)C(=O)N1C(=O)NS(=O)(=O)n1nc(-c2cc(=O)c(O)c[nH]2)n(CCS(C)(=O)=O)c1=O | 0.06 | 0.13 (≈ 0.171 µM) | 3.2 ×10⁵ /M/s | 86 | 0.534 | 2.5 | 0.23 | 1 (≈ 1.31 µM)
20 | C[C@H]1[C@H](NC(=O)/C(=N\OC(C)(C)C(=O)O)c2csc(N)n2)C(=O)N1C(=O)NS(=O)(=O)n1nc(-c2cc(=O)c(O)c[nH]2)n(CCCS(=O)(=O)c2ccccc2)c1=O | 0.03 | 1 (≈ 1.19 µM) | > 4 ×10⁵ /M/s | > 150 |  |  |  | 
21 | CC(C)(O/N=C(\C(=O)N[C@@H]1C(=O)N(C(=O)NS(=O)(=O)n2nc(-c3cc(=O)c(O)c[nH]3)n(CCCS(C)(=O)=O)c2=O)C1(C)C)c1csc(N)n1)C(=O)O |  | 8 (≈ 10.1 µM) | 1.1 ×10⁵ /M/s | > 150 |  |  |  | 
22 | C[C@H]1[C@H](NC(=O)/C(=N\OC(C)(C)C(=O)O)c2csc(N)n2)C(=O)N1C(=O)NS(=O)(=O)n1nc(-c2cc(=O)c(O)cn2O)n(CCCS(C)(=O)=O)c1=O | 0.12 | 4 (≈ 5.06 µM) | 1.5 ×10⁵ /M/s | 82 |  |  |  | 
23 | CC(C)(O/N=C(\C(=O)N[C@H]1CN(C(=O)NS(=O)(=O)n2nc(-c3cc(=O)c(O)c[nH]3)n(C[C@@H](O)CO)c2=O)C1=O)c1csc(N)n1)C(=O)O | 0.06 | 0.78 (≈ 1.09 µM) | 8.1 ×10⁵ /M/s |  |  |  |  | 
24 | C[C@H]1[C@H](NC(=O)/C(=N\OC(C)(C)C(=O)O)c2csc(N)n2)C(=O)N1S(=O)(=O)O [AZTREONAM] |  | 4 (≈ 9.19 µM) |  |  |  |  |  | ≥ 1020
25 | Cn1c(-c2cc(=O)c(O)c[nH]2)nn(S(=O)(=O)NC(=O)N2C[C@H](NC(=O)/C(=N\OC(C)(C)C(=O)O)c3csc(N)n3)C2=O)c1=O | 0.05 | 0.78 (≈ 1.19 µM) | 1.7 ×10⁵ /M/s |  |  |  |  | 
26 | C[C@H]1[C@H](NC(=O)/C(=N\OC(C)(C)C(=O)O)c2csc(N)n2)C(=O)N1C(=O)NS(=O)(=O)n1nc(-c2cc(=O)c(O)cn2O)n(CCS(C)(=O)=O)c1=O | 0.2 | 1 (≈ 1.29 µM) | 2.5 ×10⁵ /M/s | 102 |  |  |  | 
27 | C[C@@H](O)[C@H]1C(=O)N2C(C(=O)O)=C(S[C@@H]3CN[C@H](C(=O)N(C)C)C3)[C@H](C)[C@H]12 [MEROPENEM] |  | 1 (≈ 2.61 µM) | 4.9 ×10⁴ /M/s | 95 |  |  |  | 
